How the values were obtained:
Assay in all cases: OncoPanel cytotoxicity assay
Type in all cases: cell-based
SKMES1 = conditions: Homo sapiens, SK-MES-1, 72 hour incubation
Description: (§1) Cells were grown in RPMI 1640, 10% FBS, 2 mM L-alanyl-L-Glutamine, 1 mM Na Pyruvate, or a special medium in a humidified atmosphere of 5% CO2 at 37° C. Cells were seeded into 384-well plates and incubated in a humidified atmosphere of 5% CO2 at 37° C. Test compounds were added 24 hours post cell seeding. At the same time, a time zero, untreated cell plate was generated as a control. After a 72 hour incubation period, cells were fixed and stained with nuclear dye to allow visualization of nuclei.
(§2) Compounds were serially diluted 3.16-fold and assayed over 10 concentrations of inhibitor in a final assay concentration of 0.1% DMSO from the highest test concentration specified in the sample information chapter. Automated fluorescence microscopy was carried out using a GE Healthcare InCell Analyzer 1000, and images were collected with a 4× objective. Twelve bit tiff images were acquired using the InCell Analyzer 1000 3.2 and analyzed with Developer Toolbox 1.6 software.
(§3) Cell proliferation was measured by the signal intensity of the incorporated nuclear dye. The cell proliferation assay output is referred to as the relative cell count. To determine the cell proliferation end point, the cell proliferation data output is transformed to percent of control (POC) using the following formula: […]
(§4) Relative cell count IC50 (IC50) is the test compound's concentration that produces 50% of the cell proliferation inhibitory response or 50% cytotoxicity level. IC50 values were calculated using nonlinear regression to fit data to a sigmoidal 4 point, 4 parameter One-Site dose response model, where: y (fit)=A+[(B−A)/(1+((C/x)̂D))]. Curve-fitting, IC50 calculations and report generation were performed using a custom data reduction engine MathIQ based software (AIM). […] In these cases, the IC50 values were expressed as 40 μM and 10 μM, respectively (Table 2).

Colo 320DM = conditions: Homo sapiens, 72 hour incubation
Description: as §1, §2, §3, §4

J-RT3-T3-5 = conditions: Homo sapiens, 72 hour incubation
Description: as §1, §2, §3, §4

RKO = conditions: Homo sapiens, 72 hour incubation
Description: as §1, §2, §3, §4

HuP-T4 = conditions: Homo sapiens, 72 hour incubation
Description: as §1, §2, §3, §4

BT-549 = conditions: Homo sapiens, 72 hour incubation
Description: as §1, §2, §3, §4

639-V = conditions: Homo sapiens, 72 hour incubation
Description: as §1, §2, §3, §4

KHOS-240S = conditions: Homo sapiens, 72 hour incubation
Description: as §1, §2, §3, §4

HT-1080 = conditions: Homo sapiens, 72 hour incubation
Description: as §1, §2, §3, §4

CML-T1 = conditions: Homo sapiens, 72 hour incubation
Description: as §1, §2, §3, §4

SW1783 = conditions: Homo sapiens, 72 hour incubation
Description: as §1, §2, §3, §4

HT-29 = conditions: Homo sapiens, 72 hour incubation
Description: as §1, §2, §3, §4

A427 = conditions: Homo sapiens, A-427, 72 hour incubation
Description: as §1, §2, §3, §4

5637 = conditions: Homo sapiens, 72 hour incubation
Description: as §1, §2, §3, §4

JEG-3 = conditions: Homo sapiens, 72 hour incubation
Description: as §1, §2, §3, §4

G-401 = conditions: Homo sapiens, 72 hour incubation
Description: as §1, §2, §3, §4

SK-MEL-3 = conditions: Homo sapiens, SK-MEL3, 72 hour incubation
Description: as §1, §2, §3, §4

SW684 = conditions: Homo sapiens, 72 hour incubation
Description: as §1, §2, §3, §4

MOLT-3 = conditions: Homo sapiens, 72 hour incubation
Description: as §1, §2, §3, §4

NCI-H596 = conditions: Homo sapiens, 72 hour incubation
Description: as §1, §2, §3, §4

NCIH446 = conditions: Homo sapiens, NCI-H446, 72 hour incubation
Description: as §1, §2, §3, §4

SW480 = conditions: Homo sapiens, 72 hour incubation
Description: as §1, §2, §3, §4

DOHH-2 = conditions: Homo sapiens, 72 hour incubation
Description: as §1, §2, §3, §4

SNB-19 = conditions: Homo sapiens, 72 hour incubation
Description: as §1, §2, §3, §4

BxPC-3 = conditions: Homo sapiens, 72 hour incubation
Description: as §1, §2, §3, §4

DU145 = conditions: Homo sapiens, DU-145, 72 hour incubation
Description: as §1, §2, §3, §4

HT = conditions: Homo sapiens, 72 hour incubation
Description: as §1, §2, §3, §4

DBTRG-05MG = conditions: Homo sapiens, 72 hour incubation
Description: as §1, §2, §3, §4

CHL-1 = conditions: Homo sapiens, 72 hour incubation
Description: as §1, §2, §3, §4

OVCAR3 = conditions: Homo sapiens, OVCAR-3, 72 hour incubation
Description: as §1, §2, §3, §4

Caki-1 = conditions: Homo sapiens, 72 hour incubation
Description: as §1, §2, §3, §4

UM-UC-3 = conditions: Homo sapiens, UMUC3, 72 hour incubation
Description: as §1, §2, §3, §4

DB = conditions: Homo sapiens, 72 hour incubation
Description: as §1, §2, §3, §4

MES-SA = conditions: Homo sapiens, 72 hour incubation
Description: as §1, §2, §3, §4

MALME3M = conditions: Homo sapiens, Malme-3M, 72 hour incubation
Description: as §1, §2, §3, §4

SW1463 = conditions: Homo sapiens, 72 hour incubation
Description: as §1, §2, §3, §4

PANC-1 = conditions: Homo sapiens, 72 hour incubation
Description: as §1, §2, §3, §4

EM-2 = conditions: Homo sapiens, 72 hour incubation
Description: as §1, §2, §3, §4

AN3 CA = conditions: Homo sapiens, 72 hour incubation
Description: as §1, §2, §3, §4

Row | SMILES | IC50 (SKMES1) [µM] | IC50 (Colo 320DM) [µM] | IC50 (J-RT3-T3-5) [µM] | IC50 (RKO) [µM] | IC50 (HuP-T4) [µM] | IC50 (BT-549) [µM] | IC50 (639-V) [µM] | IC50 (KHOS-240S) [µM] | IC50 (HT-1080) [µM] | IC50 (CML-T1) [µM] | IC50 (SW1783) [µM] | IC50 (HT-29) [µM] | IC50 (A427) [µM] | IC50 5637 [µM] | IC50 (JEG-3) [µM] | IC50 (G-401) [µM] | IC50 (SK-MEL-3) [µM] | IC50 (SW684) [µM] | IC50 (MOLT-3) [µM] | IC50 (NCI-H596) [µM] | further results
1 | CC[C@@H]1CNC2(CC2)CN1C(=O)[C@@H]1C[C@@H](F)CN1C(=O)C1=C(C(C)C)N2C(=N[C@@](C)(c3ccc(Cl)nc3)[C@H]2c2ccc(Cl)c(F)c2)S1 [Compound A, [(5R,6S)-5-(4-Chloro-3-fluorophenyl)-6-(6-chloropyridin-3-yl)-6-methyl-3-(propan-2-yl)-5,6-dihydroimidazo[2,1-b][1,3]thiazol-2-yl][(2S,4R)-2-{[(6R)-6-ethyl-4,7-diazaspiro[2.5]oct-7-yl]carbonyl}-4-fluoropyrrolidin-1-yl]methanone] | 33.8 | > 40 | > 40 | 0.654 | > 40 | > 40 | > 40 | > 40 | 0.282 | 2.38 | > 40 | 33.5 | 1.65 | > 40 | 3.62 | 0.242 | > 40 | > 40 | 0.605 | > 40 | IC50 (NCIH446): > 40 µM; IC50 (SW480): > 40 µM; IC50 (DOHH-2): 0.123 µM; IC50 (SNB-19): > 40 µM; IC50 (BxPC-3): > 40 µM; IC50 (DU145): > 40 µM; IC50 (HT): > 40 µM; IC50 (DBTRG-05MG): 0.132 µM; IC50 (CHL-1): > 40 µM; IC50 (OVCAR3): > 40 µM; IC50 (Caki-1): 0.275 µM; IC50 (UM-UC-3): > 40 µM; IC50 (DB): > 40 µM; IC50 (MES-SA): 0.529 µM; IC50 (MALME3M): 1.04 µM; IC50 (SW1463): > 40 µM; IC50 (PANC-1): > 40 µM; IC50 (EM-2): > 40 µM; IC50 (AN3 CA): > 40 µM
2 | CC1(C)CCC2(CC1)N[C@@H](C(=O)N[C@@H]1CC[C@@H](C(N)=O)OC1)[C@H](c1ccnc(Cl)c1F)[C@]21C(=O)Nc2cc(Cl)ccc21 [Compound B, (3′R,4′S,5′R)—N-[(3R,6S)-6-carbamoyltetrahydro-2H-pyran-3-yl]-6″-chloro-4′-(2-chloro-3-fluoropyridin-4-yl)-4,4-dimethyl-2″-oxo-1″,2″-dihydrodispiro[cyclohexane-1,2′-pyrrolidine-3′,3″-indole]-5′-carboxamide] | 8.73 | > 10 | > 10 | 0.107 | > 10 | > 10 | 6.39 | > 10 | 0.062 | 0.0597 | > 10 | 5.14 | 0.143 | > 10 | 0.249 | 0.0354 | > 10 | > 10 | 0.0332 | > 10 | IC50 (NCIH446): > 10 µM; IC50 (SW480): > 10 µM; IC50 (DOHH-2): 0.0288 µM; IC50 (SNB-19): > 10 µM; IC50 (BxPC-3): > 10 µM; IC50 (DU145): 7.91 µM; IC50 (HT): > 10 µM; IC50 (DBTRG-05MG): 0.0846 µM; IC50 (CHL-1): 9.1 µM; IC50 (OVCAR3): > 10 µM; IC50 (Caki-1): 0.0387 µM; IC50 (UM-UC-3): > 10 µM; IC50 (DB): 5.98 µM; IC50 (MES-SA): 0.0641 µM; IC50 (MALME3M): 0.0875 µM; IC50 (SW1463): > 10 µM; IC50 (PANC-1): 6.73 µM; IC50 (EM-2): > 10 µM; IC50 (AN3 CA): 8.75 µM

— patent US20160333419A1, “GENE SIGNATURES ASSOCIATED WITH SENSITIVITY TO MDM2 INHIBITORS” (DAIICHI SANKYO COMPANY, LIMITED, priority 2014, published 2016)
